Laboratory results from patent publication US4851386A, “Method of treating precocious puberty” (Roussel Uclaf, priority 1979, dated 1989).

What was measured:
[1] = tested on: testicular steroidogensis; experiment: Inhibitory activity against testicular steroidogenesis in men in good health, single intranasal administration; assay type: in vivo; conditions: for seric steroid/testosterone level on the fourth day after administration: fourth day (until 6th day)
Experimental: The inhibitory activity of [D Ser (tbu)^6 des GlyNH2^10 ] LH-RH ethylamide (described in German application Ser. No. 2,438,350) against testicular steroidogensis in men in good health was determined on men in good health aged 30 to 40 years. The said product was administered intranasally at a dose of 500 μg in a few drops of distilled water at 8 A.M. on the third day of the test. For 2 days prior to the treatment and for 6 days after the treatment, samples of blood were taken daily at 8 A.M., 3 P.M. and 10 P.M. On the day of administration of the LH--RH agonist, blood samples were taken at 11 A.M. and 6 P.M.
The seric concentrations of LH and FSH were measured by radioimmuno-logic dosages with double antibodies and the antibodies for measuring LH and FSH were furnished by the National Pituitary Agency of N.I.H. in Bethesda, Md. The seric concentrations of steroids was measured by radioimmuno-logic dosages in which one ml of serum was extracted with ether and the steroids were separated on a LH-20 column before measuring with radioimmuno-logic dosages. The radioimmuno-logic dosage results were determined by a program derived from model II of Rodbard et al [Second Karolinska Symposium on Research Methods in Reproductive Endrocinology, Diczfalusky Editor, Copenhague (1970), p. 79-103]. The statistical significance was determined by the "multiple level test" of Duncan-Kramer [Kramer, Biometrics, Vol 12 (1956), p. 307]. The results are shown in the graphs on sheet 1 of the Figures filed herewith.

ovarian steroidogenosis = experiment: Inhibitory activity on ovarian steroidogenesis in women with normal menstrual cycles; assay type: in vivo
Experimental: The inhibitory activity of [D Ser (tbu)^6 des GlyNH2^10 ] LH-RH ethylamide on ovarian steroidogenosis in women was determined on 6 women aged 26 to 35 years with normal and regular menstrual cycles and without prior endocrinal or gynecological problems. The study was conducted for 6 consecutive cycles consisting of 2 pretreatment cycles, 2 treatment cycles and 2 post-treatment cycles. Two drops of a solution containing 500 μg of [D Ser (tbu)^6 des GlyNH2^10 ] LH--RH ethylamide were deposited on each nostril at 8 A.M. and 5 P.M. of a day between the 4th and 9th day after the peak of LH-day 0. Daily blood samples were taken between 4 and 6 P.M. to measure seric levels of LH, FSH, progesterone and estradiol which were determined by radioimmuno-logictests with double antibodies. The antibodies to measure LH and FSH were furnished by the National Pituitory Agency of N.I.H. of Bethesda, Md.
Estradiol and progesterone were measured with highly specific antibodies developed against 7-(O-carboxymethyl)-oxime of estradiol and 12-(O-carboxymethyl)-oxime of progesterone, respectively [3H] 17β-estradiol and ^125 I-progesterone-12-[O-carboxymethyl)-oxime]used as tracers. The serum was extracted with benzene and the steroids were separated with a LH-20 column before the determination. The radioimmunological results were exploited by the program derived from model II of Rodbard and Lewald as in Example 1 and the statistical significance was measured by the multiple level test of Ducan-Kramer of Example 1. The results are shown in the graphs of sheets 3 to 5 of the Figures.

[2] = human, single intranasal dose 500 μg
[3] = 500 μg intranasal at 8 A.M. and 5 P.M. of one day in luteal phase, typical subject (sheet 3)

Question: Which “duration of the drop of seric levels of testicular steroids (testosterone and precursors)” value [1, 2] does the source give for `CCNC(=O)[C@@H]1CCCN1C(=O)[C@H](CCCNC(=N)N)NC(=O)[C@H](CC(C)C)NC(=O)[C@@H](COC(C)(C)C)NC(=O)[C@H](Cc1ccc(O)cc1)NC(=O)[C@H](CO)NC(=O)[C@H](Cc1c[nH]c2ccccc12)NC(=O)[C@H](Cc1c[nH]cn1)NC(=O)[C@@H]1CCC(=O)N1` [[D Ser (tbu)^6 des GlyNH2^10] LH-RH ethylamide] here?
Answer: 3 days

Question: What about the “seric steroid/testosterone level on the fourth day after administration” value [1, 2] of the same molecule?
Answer: return to normal levels

Question: And the “seric steroid/testosterone level on the fourth day after administration” value ([1]; human, single intranasal dose 500 μg, listed as [D Ser (tbu)^6 des Gly NH2^10 ] LH-RH ethylamide)?
Answer: the level returned to normal

Question: And the “overall effect on testicular steroidogenesis” value ([1]; man, intranasal 500 μg)?
Answer: inhibition of testicular steroidogenesis

Question: What about the “reduction of seric levels of progesterone compared to controls, first cycle of treatment” value (ovarian steroidogenosis; [3]) of the same molecule?
Answer: 13%

Question: What about the “reduction of seric levels of progesterone compared to controls, second cycle of treatment” value (ovarian steroidogenosis; [3]) of the same molecule?
Answer: 34%

Question: And the “progesterone level of post-treatment cycles, pretreatment cycles = 100%” value (ovarian steroidogenosis; 12 cycles)?
Answer: 99%

Question: What about the “progesterone level of treatment cycles, pretreatment cycles = 100%” value (ovarian steroidogenosis; 12 cycles) of the same molecule?
Answer: 46%

Question: And the “level of progesterone reduced by, compared to the controls” value (ovarian steroidogenosis; 12 cycles, sheet 5)?
Answer: 46%

Question: And the “course of seric progesterone level in the 2 cycles of treatment” value (ovarian steroidogenosis; sheet 4, return to normal for the 2 post-treatment cycles)?
Answer: accelerated diminution
